Assay results from patent US20250196055A1, “PROCESS FOR CAPTURING CO2 FROM A MOBILE SOURCE USING AN AMINO ACID SOLVENT” (SAUDI ARABIAN OIL COMPANY, priority 2021, published 2025).
Each block holds one molecule with its values, some of them ahead of it.

What was measured:
[1] = Continuous test plant: membrane contactor CO2 absorption from exhaust and solvent regeneration in stripper; conditions: for solids at ambient conditions (in words): atmospheric pressure and room temperature
[2] = Solubility testing in gas bubbler/sparger with continuous 9 mol % CO2 in N2; conditions: 9 mol % CO2, ambient conditions
[3] = Preliminary solubility testing of CO2-loaded amino/amino-sulfonic acid solutions (precipitation temperature); type: physicochemical; conditions: for solubility of CO2-loaded solution (in words): CO2 loaded 0.35-0.45 mol CO2/mol alk., lowest limit of apparatus −10° C.; for Precipitation Temperature: ambient pressure, test range −10° C. to 40° C.
Experimental: Preliminary solubility testing was carried out with various amino and amino-sulfonic acids and blends thereof to determine the propensity for solids precipitation. These blends were loaded with CO2 under representative process conditions: a CO2 loading from 0.35 to 0.45 mol CO2/mol alkalinity at ambient pressure and a temperature from −10° C. to 40° C. CO2 loading was achieved by addition of potassium bicarbonate instead of some potassium hydroxide as the neutralizing agent. The loading (in mol CO2 per mol alkalinity) was determined from the following equation: […]

solids at ambient conditions (in words) ([1]; listed as 5 m taurine): solids are observed
SMILES: NCCS(=O)(=O)O [5 m TAU, taurine]

precipitation when 9 mol % CO2 continuously injected (in words) [2]: did not precipitate
SMILES: CN[C@@H](C)C(=O)O [3 m NMA, n-methyl-alanine]

precipitation when 9 mol % CO2 continuously injected (in words) [2]: did not precipitate
SMILES: CC(C)(N)C(=O)O [1 m AlBA, Amino isobutyric acid]

solubility of CO2-loaded solution (in words) [3]: highly soluble with no precipitation
Precipitation Temperature ([3]; Loading 0.35 mol CO2/mol alk.): <−10 °C
Precipitation Temperature ([3]; Loading 0.40 mol CO2/mol alk.): <−10 °C
Precipitation Temperature ([3]; Loading 0.45 mol CO2/mol alk.): <−10 °C
SMILES: NCCCS(=O)(=O)O [5 m homotaurine, homotaurine]

precipitation when 9 mol % CO2 continuously injected (in words) [2]: did not precipitate
SMILES: NCCC(=O)O [5 m b-ALA, Beta-alanine]

Solid Observed ([1]; 210 kPa stripper pressure, 120° C. stripper temperature, 3.75 kg/min liquid, 9 mol % CO2, 25 SCFM): YES
solids at ambient conditions (in words) ([1]; listed as 3 m potassium taurinate): solids are formed
SMILES: NCCS(=O)(=O)O [3 m TAU, taurine]
solubility of CO2-loaded solution (in words) [3]: soluble at process temperatures from 40 °C to 120° C., but potentially not soluble at room temperature

precipitation when 9 mol % CO2 continuously injected (in words) [2]: did not precipitate
SMILES: NCCCS(=O)(=O)O [3 m HTAU, homotaurine]
